Among the data in ChEMBL document CHEMBL1143546, “Novel heterocyclic glucocorticoids: in vitro profile and in vivo efficacy” (Bioorg Med Chem Lett, 2005) are EC50, IC50 and inhibition values, retold here.

The target of assay [1] is T1, Glucocorticoid receptor (Homo sapiens, UniProt P04150).
T1 sequence (P04150 whole entry): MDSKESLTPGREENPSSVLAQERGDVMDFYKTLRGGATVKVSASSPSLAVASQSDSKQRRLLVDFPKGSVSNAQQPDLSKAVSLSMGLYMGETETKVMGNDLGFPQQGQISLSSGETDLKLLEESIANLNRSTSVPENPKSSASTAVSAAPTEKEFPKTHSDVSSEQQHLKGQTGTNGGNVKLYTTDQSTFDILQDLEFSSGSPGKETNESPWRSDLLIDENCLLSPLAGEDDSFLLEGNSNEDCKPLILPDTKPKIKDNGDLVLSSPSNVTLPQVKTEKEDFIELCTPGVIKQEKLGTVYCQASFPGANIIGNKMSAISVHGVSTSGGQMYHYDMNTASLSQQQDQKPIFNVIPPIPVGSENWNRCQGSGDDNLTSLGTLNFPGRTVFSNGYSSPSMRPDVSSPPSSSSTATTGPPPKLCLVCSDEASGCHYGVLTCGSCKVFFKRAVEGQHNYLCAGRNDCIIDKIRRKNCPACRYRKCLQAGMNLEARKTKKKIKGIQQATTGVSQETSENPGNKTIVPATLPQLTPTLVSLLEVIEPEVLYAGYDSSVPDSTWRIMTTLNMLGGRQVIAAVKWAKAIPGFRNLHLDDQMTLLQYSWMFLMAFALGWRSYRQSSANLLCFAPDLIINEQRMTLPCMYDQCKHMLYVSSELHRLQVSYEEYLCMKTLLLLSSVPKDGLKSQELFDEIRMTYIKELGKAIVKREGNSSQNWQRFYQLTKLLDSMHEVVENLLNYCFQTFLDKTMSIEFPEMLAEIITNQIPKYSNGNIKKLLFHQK
The assay can be described thus: Inhibition of GR-mediated tyrosine amino transferase activity in human HepG2 cells. It counts as cell-based.

Assay [2] has as its target T2, Glucocorticoid receptor (Mus musculus, UniProt P06537).
T2 sequence (P06537 whole entry): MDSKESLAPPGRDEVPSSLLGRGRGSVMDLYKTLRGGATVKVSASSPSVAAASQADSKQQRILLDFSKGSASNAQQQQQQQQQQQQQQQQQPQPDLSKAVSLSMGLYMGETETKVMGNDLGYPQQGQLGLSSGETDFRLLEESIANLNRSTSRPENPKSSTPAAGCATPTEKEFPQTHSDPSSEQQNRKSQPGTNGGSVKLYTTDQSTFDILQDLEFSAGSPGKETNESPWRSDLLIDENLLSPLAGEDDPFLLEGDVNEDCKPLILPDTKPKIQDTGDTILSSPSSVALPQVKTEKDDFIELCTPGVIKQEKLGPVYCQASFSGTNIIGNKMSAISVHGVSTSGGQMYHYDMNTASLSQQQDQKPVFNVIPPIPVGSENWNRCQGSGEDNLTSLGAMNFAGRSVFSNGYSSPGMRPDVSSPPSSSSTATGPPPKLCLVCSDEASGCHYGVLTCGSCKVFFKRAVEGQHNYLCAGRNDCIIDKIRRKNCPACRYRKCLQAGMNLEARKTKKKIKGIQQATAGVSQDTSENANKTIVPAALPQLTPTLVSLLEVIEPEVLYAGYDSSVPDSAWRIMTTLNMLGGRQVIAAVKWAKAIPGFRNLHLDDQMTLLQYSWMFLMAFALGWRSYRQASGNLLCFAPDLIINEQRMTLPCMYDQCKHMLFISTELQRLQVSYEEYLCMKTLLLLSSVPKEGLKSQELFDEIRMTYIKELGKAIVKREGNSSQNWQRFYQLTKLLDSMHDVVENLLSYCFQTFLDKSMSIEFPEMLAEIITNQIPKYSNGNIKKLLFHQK
Briefly: Inhibition of mouse glutamine synthetase by GR-mediated transactivation in C2C12 cells. It counts as cell-based.

For assay [3], the target named is T2, Glucocorticoid receptor. Briefly: GR-mediated transrepression of IL-6 in peritoneal exudate cells harvested from C57BI/6 mice. The class given is cell-based.
In assay [4] the target is T1, Glucocorticoid receptor. The assay can be described thus: GR-mediated transrepression of IL-6 in human A549 lung carcinoma cells. The class given is functional, cell-based.
Assay [5] concerns the target T1, Glucocorticoid receptor. Briefly: Inhibition of human glucocorticoid receptor alpha by displacement of [3H]dexamethasone.
For assay [6], the target named is T3, Glucocorticoid receptor (Mus musculus) (UniProt P06537).
T3 sequence (whole entry): T2 sequence (P06537 whole entry)
Briefly: Percent absolute inhibition of LPS-induced tumor necrosis factor alpha release in mice at 3 mg/kg dose. More on the design: dose 3 mg/kg. The class given is organism-based.

For assay [7], the target named is T3, Glucocorticoid receptor (Mus musculus). The assay can be described thus: Percent inhibition of LPS-induced tumor necrosis factor alpha release in mice relative to prednisolone at 3 mg/kg dose. It counts as organism-based. More on the design: dose 3 mg/kg.

Structures are written as SMILES. pEC50, pIC50: −log10 of the molar value.

Consider `C[C@]12Cc3cnn(-c4ccc(F)cc4)c3C=C1CCC[C@@H]2[C@H](O)c1csc2ccccc12`, for which the pEC50 in assay [1] is 6.45; in assay [2], 8.52; in assay [3], 7.96; in assay [4], 8.22. This molecule also had a pIC50 in assay [5] of 8.82.

In the case of `COc1cc([C@H](O)[C@H]2CCCC3=Cc4c(cnn4-c4ccc(F)cc4)C[C@@]32C)cc(F)c1F`, the pEC50 in assay [3] was 7.82.

Consider `C[C@]12Cc3cnn(-c4ccc(F)cc4)c3C=C1CCC[C@@H]2[C@@H](O)c1cccs1`, for which the values for the pEC50 in assay [3] and in assay [4] were 7.68 and 7.43, respectively. This molecule gave a pIC50 in assay [5] of 8.15.

For the molecule `C[C@]12Cc3cnn(-c4ccc(F)cc4)c3C=C1CCC[C@@H]2[C@@H](O)c1ccc(Cl)s1`, the pEC50 is 5.97 in assay [1], 7.47 in assay [2], 7.77 in assay [3] and 7.89 in assay [4]. In assay [5], this molecule had a pIC50 of 8.12.

In the case of `C[C@]12Cc3cnn(-c4ccc(F)cc4)c3C=C1CCC[C@@H]2[C@@H](O)c1csc2ccccc12`, the pEC50 in assay [3] was 7.27; in assay [4], 7.74. In assay [5], this molecule gave a pIC50 of 8.29.

Consider `C[C@]12Cc3cnn(-c4ccc(F)cc4)c3C=C1CCC[C@@H]2[C@](C)(O)c1ccsc1`, for which the pEC50 in assay [2] is 8.08; in assay [3], 8.28; in assay [4], 9.02.

With `C[C@]12Cc3cnn(-c4ccc(F)cc4)c3C=C1CCC[C@@H]2[C@@H](O)Cc1ccc(F)cc1`, the pEC50 was 7.77 in assay [2] and 8.43 in assay [3]. The molecule also gave a pIC50 in assay [5] of 8.34.

`C[C@]12C=CC(=O)C=C1CC[C@@H]1[C@@H]2[C@@H](O)C[C@@]2(C)[C@H]1CC[C@]2(O)C(=O)CO` [PREDNISOLONE] gave a pEC50 in assay [3] of 8.24. Besides, the inhibition in assay [6] came out at 71%; in assay [7], 100%.

Take `C[C@]12Cc3cnn(-c4ccc(F)cc4)c3C=C1CCC[C@@H]2[C@H](O)c1ccc(F)nc1`: the pEC50 is 5.35 in assay [1], 7.64 in assay [2], 8.30 in assay [3] and 7.68 in assay [4]. Moreover, the pIC50 in assay [5] was 8.04.

On to `C[C@]12Cc3cnn(-c4ccc(F)cc4)c3C=C1CCC[C@@H]2[C@@H](O)c1ccoc1`, for which the pEC50 is 7.35 in assay [3] and 8.57 in assay [4]. Further, the pIC50 in assay [5] is 8.54.

As for `C[C@]12Cc3cnn(-c4ccc(F)cc4)c3C=C1CCC[C@@H]2[C@@H](O)c1cc(Cl)sc1Cl`, the pEC50 in assay [3] is 6.92; in assay [4], 7.51. This molecule gave a pIC50 in assay [5] of 7.99.

`C[C@]12Cc3cnn(-c4ccc(F)cc4)c3C=C1CCC[C@@H]2[C@@H](O)c1ccc(F)nc1`: the pEC50 in assay [2] was 6.59; in assay [3], 7.92; in assay [4] it was 7.89. The molecule further gave a pIC50 in assay [5] of 7.87.

As for `C[C@]12Cc3cnn(-c4ccc(F)cc4)c3C=C1CCC[C@@H]2[C@@H](O)c1cc2ccccc2s1`, the results for the pEC50 in assay [2] and in assay [4] were 5.92 and 7.72, respectively.

As to `C[C@]12Cc3cnn(-c4ccc(F)cc4)c3C=C1CCC[C@@H]2[C@@H](O)c1ccncc1`, the pEC50 in assay [3] is 6.67; in assay [4] it was 7.42. The pIC50 in assay [5] is 7.63.
